{"source": "paper PMC8511024", "about": "“In silico and multi-spectroscopic analyses on the interaction of 5-amino-8-hydroxyquinoline and bovine serum albumin as a potential anticancer agent” (Scientific Reports, 2021)", "key": {"[1]": {"target": "T1, bovine serum albumin (BSA) (Bos taurus, UniProt P02769)", "T1 construct": "bovine serum albumin (BSA), a representative of serum protein; purchased Sigma-Aldrich Co. LLC", "T1 sequence (P02769 25-607)": "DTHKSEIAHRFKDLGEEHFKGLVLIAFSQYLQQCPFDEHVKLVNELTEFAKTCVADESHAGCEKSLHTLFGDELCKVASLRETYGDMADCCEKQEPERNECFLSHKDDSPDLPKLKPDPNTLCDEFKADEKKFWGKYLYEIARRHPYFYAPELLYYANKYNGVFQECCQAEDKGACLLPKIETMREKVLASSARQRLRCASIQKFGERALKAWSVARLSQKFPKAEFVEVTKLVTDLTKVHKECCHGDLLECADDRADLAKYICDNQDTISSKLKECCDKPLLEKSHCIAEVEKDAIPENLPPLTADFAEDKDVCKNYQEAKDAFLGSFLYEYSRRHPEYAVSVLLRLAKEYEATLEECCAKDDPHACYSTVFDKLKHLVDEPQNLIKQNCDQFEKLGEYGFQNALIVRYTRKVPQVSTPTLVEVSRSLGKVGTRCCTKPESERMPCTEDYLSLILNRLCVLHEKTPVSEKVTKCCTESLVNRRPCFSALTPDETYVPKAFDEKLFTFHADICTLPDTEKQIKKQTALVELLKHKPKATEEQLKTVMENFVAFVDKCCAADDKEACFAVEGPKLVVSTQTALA", "assay": "Fluorescence resonance energy transfer (FRET) between BSA and 5A8HQ", "assay_type": "binding", "description": "Besides microenvironmental changes around its fluorophore, quenching of BSA fluorescence may also be provoked by fluorescence resonance energy transfer (FRET) process, in which the excited Trp and/or Tyr transfer their energy to the quencher (5A8HQ) via dipole–dipole interaction. However, the FRET phenomenon is strictly dependent on the degree of overlapping between emission spectrum of fluorophore and absorption spectrum of quencher. Also, fluorophore and quencher must be in proximity (2–8 nm) to each other and their transition dipoles must align in parallel orientation. FRET is a useful method to study molecular distance among molecules that can provide guidance on whether ligand binds with protein at proximity to the Trp fluorophore. The distance ( r ) between quencher and fluorophore can be calculated by Eq. (6).6 E=1-F/F0=R06/[…] E stands for the efficiency of fluorescence resonance energy transfer. F0 and F are fluorescence intensities of BSA in the absence and presence of 5A8HQ, respectively. R0 is the Förster distance, where half of the excitation energy is transferred to the acceptor. R0 can be obtained by Eqs. (7) and (8) as follows:7 R0=0.211k^2∅DJ/n^4^1/6 8 J=∫0∞Fλελλ^4dλ/∫0∞Fλdλ where k^2 is the orientation factor of the dipoles, which can range between 0 and 4. ∅D and n denote the fluorescence quantum yield of donor without quencher and the refractive index of the medium, respectively. J is an overlapping between the donor fluorescence spectrum and the quencher absorption spectrum. Fλ and ελ mean fluorescence intensity of the donor and molar absorption coefficient of the acceptor at the λ wavelength.\nR0 was determined on the assumption that ∅D and n were 0.15 and 1.336, respectively. However, Förster distance depends greatly on orientation between donor’s and acceptor’s dipoles. k^2 value of 0.667 is generally assumed for dynamic dipole orientation, where dipoles are randomly oriented because of their rotational diffusion. […] Based on these two assumptions of dipole orientation, R0 were calculated to be 2.37 and 2.50 nm, which subsequently yielded the Trp to 5A8HQ distances ( r ) at 3.01 and 3.18 nm for static and dynamic dipole orientations, respectively."}, "[2]": {"target": "T1, bovine serum albumin (BSA)", "assay": "Circular dichroism spectroscopy of BSA secondary structure", "conditions": "BSA 4 µM, 310 K, without 5A8HQ 66.17%", "description": "Structural alteration of the BSA when interacting with 5A8HQ was further elucidated by a CD spectroscopy, which is a useful technique for analyzing the secondary structure of macromolecules. BSA structure is dominantly composed of α-helix (~ 67%), represented by two prominent negative bands at 208 (π–π* transition) and 222 (n–π* transition) nm, and a positive band at 192 nm (π–π* transition)[54]. […] This finding is in well agreement with other observations, especially thermodynamic parameters, molecular docking, and molecular dynamics simulations, which implied that BSA tends to transform its native conformation for ground-state complexation with 5A8HQ. Hydrogen bonding and electrostatic networks of the complex might reallocate hydrogen bonding of α-helix structure as indicated by a slight decrease in CD spectral bands.\nCD measurement was performed to determine a secondary conformational alteration of BSA under 5A8HQ exposure using a Jasco J-815 spectropolarimeter (JASCO International Co. Ltd., Tokyo, Japan). BSA (4 µM) was incubated with 5A8HQ (5 and 50 µM) in a 1 mm path length cuvette at 310 K under constantly flushed with nitrogen. The spectra were recorded in a range of 200–260 nm at an interval of 1 nm with a 60 nm/min scanning rate."}, "[3]": {"target": "T1, bovine serum albumin (BSA)", "assay": "Fluorescence quenching of BSA (Stern–Volmer, Hill and Van't Hoff analyses)", "assay_type": "binding", "conditions": "for Stern–Volmer constant Ksv: BSA 4 µM, 5A8HQ 0–170 µM; for Quenching rate constant kq: lifetime of 1 × 10^−8 s assumed", "description": "Quenching of intrinsic protein fluorescence can be triggered by either static or dynamic process. In some circumstances, both processes can concurrently provoke fluorescence quenching known as a combined quenching mechanism. Static and dynamic quenching processes obey a linear model of the Stern–Volmer equation (Eq. 1), which can be approximately differentiated by scrutinizing the Stern–Volmer constant ( Ksv ) at different temperatures. Positive relationship of Ksv with temperature indicates dynamic quenching process, while negative association infers static process. Dynamic quenching occurs via collisional encountering among protein and ligand. Increasing temperature enlarges ligand motion to hit protein and quench its fluorescence at the excited state, resulting in increasing Ksv . Static quenching is contrary to the dynamic one. It is arisen by the complexation of protein and ligand, in which rising temperature tends to disfavor binding event and lessen Ksv value. Combined quenching process influences both ground-state and excited state of protein fluorescence, which usually deviates the linearity of classical Stern–Volmer plot to downward or upward curvature[42].1 F0/F=1+KsvQ=1+kqτ0Q F0 and F are the steady-state fluorescence intensities of fluorophore (BSA) in the absence and the presence of quencher (5A8HQ), respectively. Q refers to the molar concentration of quencher. Ksv is Stern–Volmer constant. kq and τ0 are biomolecular quenching rate constant and fluorescence lifetime of the fluorophore without quencher, respectively.\nFluorescence quenching and thermodynamic analyses were performed at three different temperatures including 310, 300, and 290 K to imitate physiological, ambient, and hypothermic conditions, respectively. The 5A8HQ quenched fluorescence emission of BSA in a concentration dependent manner and almost reached saturation at 5A8HQ concentration above 130 µM (Fig. 3A). The Stern–Volmer plots behaved in a positive linear trend, indicating a single process of BSA fluorescence quenching by 5A8HQ (Fig. 3B).\nIn addition, quenching process could be roughly verified by determining the quenching rate constant of the interaction (Eq. (1)), in which the quenching rate constant at 2 × 10^10 M^−1 s^−1 is usually employed as a maximum cutoff for diffusion collision quenching of various quenchers. The fluorescence lifetime of excited state can be measured using a lifetime spectrofluorometer. However, in case of inaccessible to such instrument like this study, a lifetime of 1 × 10^−8 s is generally assumed for the calculation of quenching rate constant. Accordingly, the quenching rate constant of BSA‒5A8HQ interaction at each temperature was approximated to be 10^12 M^−1 s^−1 (Table 2), which was 100 times higher than that of the typical collisional quenching process (2 × 10^10 M^−1 s^−1). […] Thereby, the binding constants of complexation were elucidated using Hill’s plot.\nVarious non-covalent interactions play an important role in the binding of ligand to protein including hydrogen bonding, van der Waals force, electrostatic, and hydrophobic interactions. Therefore, complex formation between BSA and 5A8HQ was further explored to determine principal interaction forces and binding affinity. Nonlinear Hill’s equation (Eq. (2)) was applied on the fluorescence dataset of BSA–5A8HQ complex to obtain binding constant ( KA ) and Hill coefficient constant ( n ), which fundamentally infer affinity and cooperativity of the binding, respectively (Fig. 4A).\n2 F0-F/F0=KA[Q]^n/1+KA[Q]^n F0 , F , and Q stand for the same annotations as the aforementioned in Eq. (1). Hill’s equation can be transformed to linear form as an expression of Eq. (3), which is often applied in many studies.3 logF0-F/F=logKA+nlogQ KA is similar to KSV in terms of binding constant, but in different aspects of interaction behavior. KA implies a degree of affinity at static process, while KSV rather reflects dynamic behavior among protein and ligand[16]. […]"}, "[4]": {"target": "T1, bovine serum albumin (BSA)", "assay": "Site probe competitive (site marker displacement) analysis", "assay_type": "binding", "conditions": "310 K; for Kd: Binding constant KA, BSA 4 µM", "description": "Serum albumin can bind and transport various molecules since its structure assembles many binding pockets. Site I and site II are well-defined binding pockets located in hydrophobic regions of subdomains IIA and IIIA, respectively, which primarily bind aromatic and heterocyclic compounds. Site III is found on the hydrophilic region of subdomain IB to serve as a binding pocket for numerous compounds e.g., bilirubin, hemin, and sulfonamide derivatives. In addition, seven binding sites for fatty acids are discovered on subdomains IB, IIIA, and IIIB, and at the interface between subdomains. Herein, site-probe displacement study was employed to determine the preferred binding site on BSA of 5A8HQ using warfarin, ibuprofen, and digitoxin as competitive probes for sites I, II, and III, respectively. Binding constant of 5A8HQ to BSA was determined during equilibration with each site marker (Table 4).\nBSA (4 µM) was equilibrated with various concentrations of 5A8HQ (0, 5, 10, 30, 50, 70, 90, 110, 130, 150, and 170 µM) for 10 min at the different temperatures (290, 300, and 310 K). Later, fluorescence spectra in a range of 285–450 nm were measured with 280 nm excitation using a temperature-controlled QuantaMaster™ 40 spectrofluorometer (Photon Technology International, Inc., Ontario, Canada). Site marker displacement analyses were achieved as the abovementioned, but an equimolar concentration of […] was added to BSA prior challenging with various 5A8HQ concentrations at physiological temperature (310 K). Inner filter effect (IFE) becaused by the excitation and emission beam attenuations by sample might produce nonlinearity artifact on the measured fluorescent signal, so IFE was routinely eradicated by the following equation[55].9 Fcor=Fobs×e^(A^ex-A^em)/2 where Fobs and Fcor are the measured and corrected fluorescence intensities, respectively. A^ex and A^em are the absorbance values at excitation and emission wavelengths being measured. The IFE corrected fluorescence signals were served for estimations of all pertinent parameters, such as quenching constant, binding constant, and thermodynamics parameters, if not otherwise stated."}, "[5]": {"conditions": "read-out: Antioxidant activity IC50; cited from earlier work"}, "BSA": {"system": "BSA", "parameters": "method as in PMID 30865872", "conditions": "cited from earlier work"}}}
{"molecule": "Nc1ccc(O)c2ncccc12", "note": "[5A8HQ, 5-Amino-8-hydroxyquinoline]", "values": [{"measurement": "Integral spectral overlap J", "setting": "[1]; BSA 4 µM fluorescence, 5A8HQ 5 µM absorption", "result": "9.55 × 10^13 M^−1 cm^−1 nm^4"}, {"measurement": "Trp to 5A8HQ distance r", "setting": "[1]; dynamic dipole orientation", "result": 3.18, "unit": "nm"}, {"measurement": "Förster distance R0", "setting": "[1]; dynamic dipole orientation, k^2 0.667", "result": 2.50, "unit": "nm"}, {"measurement": "Trp to 5A8HQ distance r", "setting": "[1]; static dipole orientation", "result": 3.01, "unit": "nm"}, {"measurement": "Förster distance R0", "setting": "[1]; static dipole orientation, k^2 0.475", "result": 2.37, "unit": "nm"}, {"measurement": "α-helix content of BSA", "setting": "[2]; 5A8HQ 5 µM", "result": 64.96, "unit": "%"}, {"measurement": "α-helix content of BSA", "setting": "[2]; 5A8HQ 50 µM", "result": 63.65, "unit": "%"}, {"measurement": "Hill coefficient constant n", "setting": "[3]; 290 K", "result": "1 ± 0"}, {"measurement": "Stern–Volmer constant Ksv", "setting": "[3]; 290 K", "result": "2.773 ± 0.071 × 10^4 M^−1"}, {"measurement": "Quenching rate constant kq", "setting": "[3]; 290 K", "result": "2.773 ± 0.071 × 10^12 (M^−1 s^−1)"}, {"measurement": "Hill coefficient constant n", "setting": "[3]; 300 K", "result": "1 ± 0"}, {"measurement": "Stern–Volmer constant Ksv", "setting": "[3]; 300 K", "result": "1.303 ± 0.043 × 10^4 M^−1"}, {"measurement": "Quenching rate constant kq", "setting": "[3]; 300 K", "result": "1.303 ± 0.043 × 10^12 (M^−1 s^−1)"}, {"measurement": "Hill coefficient constant n", "setting": "[3]; 310 K", "result": "1 ± 0"}, {"measurement": "Stern–Volmer constant Ksv", "setting": "[3]; 310 K", "result": "1.173 ± 0.032 × 10^4 M^−1"}, {"measurement": "Quenching rate constant kq", "setting": "[3]; 310 K", "result": "1.173 ± 0.032 × 10^12 (M^−1 s^−1)"}, {"measurement": "Kd", "setting": "[3]; Binding constant KA, 290 K, Hill's equation", "result": 40, "unit": "µM"}, {"measurement": "Kd", "setting": "[3]; Binding constant KA, 300 K, Hill's equation", "result": 58.6, "unit": "µM"}, {"measurement": "Kd", "setting": "[3]; Binding constant KA, 310 K, Hill's equation", "result": 83.7, "unit": "µM"}, {"measurement": "Kd", "setting": "[3]; Binding constant of BSA‒5A8HQ interaction (order of magnitude), 290–310 K", "result": 100, "unit": "µM"}, {"measurement": "Quenching rate constant (order of magnitude)", "setting": "[3]; at each temperature, lifetime 1 × 10^−8 s assumed", "result": "~10^12 M^−1 s^−1"}, {"measurement": "Kd", "setting": "[4]; with digitoxin (site III marker) 4 µM", "result": 47.6, "unit": "µM"}, {"measurement": "Kd", "setting": "[4]; with ibuprofen (site II marker) 4 µM", "result": 47.8, "unit": "µM"}, {"measurement": "Kd", "setting": "[4]; with warfarin (site I marker) 4 µM", "result": 47.1, "unit": "µM"}, {"measurement": "Kd", "setting": "[4]; without site marker", "result": 83.7, "unit": "µM"}, {"measurement": "Number of binding site n", "setting": "[4]; with digitoxin 4 µM", "result": "1 ± 0"}, {"measurement": "Number of binding site n", "setting": "[4]; with ibuprofen 4 µM", "result": "1 ± 0"}, {"measurement": "Number of binding site n", "setting": "[4]; with warfarin 4 µM", "result": "1 ± 0"}, {"measurement": "Number of binding site n", "setting": "[4]; without site marker", "result": "1 ± 0"}, {"measurement": "IC50", "setting": "[5]", "result": 8.71, "unit": "µM"}]}
{"molecule": "Oc1c(I)cc(Cl)c2cccnc12", "note": "[clioquinol, 5-chloro-7-iodo-8-hydroxyquinoline]", "values": [{"measurement": "Binding constant KA", "setting": "BSA", "result": "10^8 M^−1"}]}
{"molecule": "Cc1c(C)c2c(c(C)c1O)CC[C@@](C)(CCC[C@H](C)CCC[C@H](C)CCCC(C)C)O2", "note": "[α-tocopherol, reference compound]", "values": [{"measurement": "IC50", "setting": "[5]", "result": 13.5, "unit": "µM"}]}
